Laboratory results from patent publication US20140378460A1, “COMPOSITIONS AND METHODS FOR TREATING NEURODEGENERATIVE DISEASE” (COGNITION THERAPEUTICS, INC., priority 2011, published 2014).
Entries after “also recorded” stand apart in the source; their conditions may differ.

Legend:
[1] = tested on: sigma 2 (agonist radioligand); assay: Receptor panel, inhibition of binding; settings: Compound II 10 uM
[2] = tested on: Na+ channel (site 2) (antagonist radioligand); assay: Receptor panel, inhibition of binding
[3] = tested on: Abeta oligomer binding to primary neurons; assay: Abeta 1-42 oligomer binding assay; format: cell-based, rat
Description: In this assay, Abeta oligomers were brought in contact with mature primary neurons in culture and their binding was determined by immunohistochemistry (anti-Abeta antibody) and quantified by image processing. The amount of Abeta in neuronal dendrites is assessed by counting the number of labeled puncta on the neuritis. […] This labeling is associated with synapses, co-localizing with the post-synaptic scaffold protein PSD-95 (Lacor et al., '04). […] The number of synapses can also be quantified in this assay by immunofluorochemistry. Similar procedures for binding assays can be found in the literature. […] Review.
Primary hippocampal neuronal culture was established as in the membrane trafficking assay above. […] Pretreatment with compounds to be tested lasted for 1 hr and addition of Abeta oligomers or no oligomer (vehicle alone) in a final concentration of 70 ul was followed by incubation for an additional 23 hrs.
The plates were then washed 3× with PBS for 5 min each. The plates were blocked at RT for 1 hr in 5% goat serum and 0.5% Triton X-100 in PBS. […] Primary antibodies were incubated overnight at 4° C. The plates were then washed 3× with PBS for 5 min each. […] Secondary antibodies were incubated at RT for 1 hr. The plates were washed once with PBS. DAPI (4′,6-diamidino-2-phenylindole, Invitrogen) was then applied at 0.03 ug/ul and incubated at RT for 5 min, then washed with PBS.

[4] = tested on: Abeta oligomer-induced memory deficits in wt C57BL/6 mice; assay: Contextual fear conditioning, intrahippocampal Abeta oligomers; format: in vivo, mouse; settings: before oligomers
Description: Several pharmaceutical companies use this same model in their discovery efforts. Contextual fear conditioning is an accepted model of associative memory formation which correlates to human cognitive function and specifically the creation of new memories (Delgado '06). Abeta oligomers are injected into the hippocampus of wild-type animals immediately before conditioning training and memory is assessed via freezing behavior after 24 hours. See, for example, FIGS. 4 and 8. Details are provided in Example 9. […] This model system was chosen because intrahippocampal administration of oligomers allows rapid comparative assessment of compound activity and off-target toxicity. The results are shown graphically in FIG. 4.
Compound II was tested in an animal model of a memory-dependent behavioral task known as fear conditioning. The study protocol was designed based on published protocols (See e.g. Puzzo D, Privitera L, Leznik E, Fà M, Staniszewski A, Palmeri A, Arancio O. Picomolar amyloid-beta positively modulates synaptic plasticity and memory in hippocampus. J. Neurosci. 2008 Dec. 31; 28(53):14537-45.). The formation of contextual memories is dependent upon the integrity of medial temporal lobe structures such as the hippocampus. […]

[5] = tested on: hAPP transgenic mice (Swedish and London mutations); assay: Morris water maze in hAPP transgenic mice; format: in vivo, mouse; settings: II 0.5 mg/kg/day; subcutaneous minipump
Description: In this study, rather than preventing deficits from occurring, deficits that were already established were treated. These studies were performed pursuant to a service contract by scientists who were blind to the experimental conditions. […]
The swim speed was analyzed as part of the Morris measurements to determine if there were any motor or motivational deficits. Our vehicle is a 5% DMSO/5% Solutol, 90% saline mixture. […] The average of three daily trials on each of four consecutive days were determined.
Escape latency measurements from the Morris water test were taken.
During the final four days of treatment, mice were tested to find the hidden platform in three trials/day. A computerized tracking system automatically quantified escape latency, or swim length.

[6] = tested on: SKOV-3 human ovarian cancer cell line; assay: MTS tumor cell viability assay; format: cell-based
Description: The cytotoxicity of compounds shown below was determined using the CellTiter96 Aqueous One Solution Assay (Promega, Madison, Wis.). […] The plate was read at 490 nm in a Victor3 plate reader (PerkinElmer Life and Analytical Sciences, Shelton, Conn.). The EC^50 value, defined as the concentration of the sigma ligand required to inhibit cell viability by 50% relative to untreated cells, was determined from the dose response curve for each cell line.

[7] = tested on: caspase-3 in SKOV-3 human ovarian cancer cells; assay: Caspase-3 activity in tumor cells; format: cell-based
[8] = tested on: caspase-3 in neuronal cultures; assay: Caspase-3 activity in neurons; format: cell-based
[9] = biological target: hERG (Homo sapiens, UniProt Q12809); assay: hERG inhibition; settings: 100 nM
hERG, sequence (Q12809 whole entry): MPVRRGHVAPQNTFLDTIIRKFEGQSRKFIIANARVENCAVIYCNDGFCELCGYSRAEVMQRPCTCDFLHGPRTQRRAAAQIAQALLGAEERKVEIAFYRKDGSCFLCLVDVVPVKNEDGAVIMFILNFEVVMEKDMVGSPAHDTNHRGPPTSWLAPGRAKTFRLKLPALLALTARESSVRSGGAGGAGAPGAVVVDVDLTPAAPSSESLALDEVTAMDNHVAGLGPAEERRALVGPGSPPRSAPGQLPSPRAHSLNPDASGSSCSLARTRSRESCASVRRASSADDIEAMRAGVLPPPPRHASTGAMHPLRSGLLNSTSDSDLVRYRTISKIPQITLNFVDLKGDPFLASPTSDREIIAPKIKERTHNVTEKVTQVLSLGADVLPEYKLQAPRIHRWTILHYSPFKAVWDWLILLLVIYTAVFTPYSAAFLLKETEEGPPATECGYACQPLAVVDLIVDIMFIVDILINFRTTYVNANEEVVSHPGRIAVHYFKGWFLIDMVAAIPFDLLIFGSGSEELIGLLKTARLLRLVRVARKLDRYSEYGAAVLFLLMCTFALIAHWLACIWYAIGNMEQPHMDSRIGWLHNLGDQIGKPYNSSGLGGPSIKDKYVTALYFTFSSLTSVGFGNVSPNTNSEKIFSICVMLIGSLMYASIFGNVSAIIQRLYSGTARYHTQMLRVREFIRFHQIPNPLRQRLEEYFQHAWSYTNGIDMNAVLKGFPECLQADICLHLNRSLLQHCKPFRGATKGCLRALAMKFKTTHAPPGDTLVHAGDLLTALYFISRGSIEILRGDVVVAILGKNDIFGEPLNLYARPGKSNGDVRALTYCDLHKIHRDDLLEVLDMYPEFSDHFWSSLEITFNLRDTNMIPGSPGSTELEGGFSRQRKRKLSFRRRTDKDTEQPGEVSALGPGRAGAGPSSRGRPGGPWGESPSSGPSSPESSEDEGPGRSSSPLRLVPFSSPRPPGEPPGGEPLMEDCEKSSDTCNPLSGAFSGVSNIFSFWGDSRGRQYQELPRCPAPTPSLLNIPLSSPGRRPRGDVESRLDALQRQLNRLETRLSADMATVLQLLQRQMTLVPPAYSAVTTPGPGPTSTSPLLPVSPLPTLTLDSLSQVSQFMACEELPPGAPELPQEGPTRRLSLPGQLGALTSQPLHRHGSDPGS

[10] = biological target: PGP (Homo sapiens, UniProt P08183); assay: PGP activity; format: in vitro ADME
PGP, sequence (P08183 whole entry): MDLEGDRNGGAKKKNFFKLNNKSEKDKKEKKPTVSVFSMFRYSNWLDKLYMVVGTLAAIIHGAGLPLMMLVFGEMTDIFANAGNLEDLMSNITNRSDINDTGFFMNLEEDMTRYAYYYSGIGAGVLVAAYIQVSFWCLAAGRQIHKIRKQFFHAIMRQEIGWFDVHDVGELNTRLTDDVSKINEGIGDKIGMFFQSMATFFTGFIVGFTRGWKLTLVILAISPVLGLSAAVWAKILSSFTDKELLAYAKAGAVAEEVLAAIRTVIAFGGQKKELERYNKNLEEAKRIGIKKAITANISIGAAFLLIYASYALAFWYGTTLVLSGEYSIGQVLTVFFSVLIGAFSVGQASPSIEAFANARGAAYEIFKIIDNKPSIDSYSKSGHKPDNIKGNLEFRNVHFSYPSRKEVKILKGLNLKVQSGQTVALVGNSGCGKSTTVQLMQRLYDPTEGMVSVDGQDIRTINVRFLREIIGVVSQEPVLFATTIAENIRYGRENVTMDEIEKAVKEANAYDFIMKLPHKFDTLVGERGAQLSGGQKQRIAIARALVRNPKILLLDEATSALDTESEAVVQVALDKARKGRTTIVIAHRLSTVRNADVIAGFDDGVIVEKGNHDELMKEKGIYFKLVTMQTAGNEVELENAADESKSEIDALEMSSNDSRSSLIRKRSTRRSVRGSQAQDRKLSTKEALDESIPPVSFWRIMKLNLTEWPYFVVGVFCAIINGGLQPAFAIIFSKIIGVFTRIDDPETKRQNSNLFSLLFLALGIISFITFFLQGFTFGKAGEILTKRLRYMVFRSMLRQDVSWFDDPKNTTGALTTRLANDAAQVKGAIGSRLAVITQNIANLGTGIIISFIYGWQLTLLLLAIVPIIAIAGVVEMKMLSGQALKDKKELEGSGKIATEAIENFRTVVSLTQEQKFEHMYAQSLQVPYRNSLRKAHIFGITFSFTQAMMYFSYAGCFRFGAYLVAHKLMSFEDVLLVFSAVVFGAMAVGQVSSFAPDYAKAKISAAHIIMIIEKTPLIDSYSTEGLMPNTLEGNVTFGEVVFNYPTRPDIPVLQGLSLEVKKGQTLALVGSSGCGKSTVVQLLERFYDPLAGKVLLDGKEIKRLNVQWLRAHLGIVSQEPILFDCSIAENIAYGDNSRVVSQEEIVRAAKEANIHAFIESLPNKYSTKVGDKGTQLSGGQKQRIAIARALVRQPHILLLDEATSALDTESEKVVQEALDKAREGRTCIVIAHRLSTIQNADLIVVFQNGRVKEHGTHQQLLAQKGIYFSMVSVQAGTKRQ

[11] = tested on: neuronal cultures; assay: Neuronal nuclear intensity / morphology; settings: 24 hours
[12] = Genotoxicity (AMES, micronucleus, bacterial cytotox); settings: 10 μM
[13] = biological target: T1, sigma-2 receptor (Rattus norvegicus, UniProt Q5U3Y7); assay: Competitive Radioligand Binding Assay 2, sigma-2, rat liver membrane homogenates; set-up: conducted using rat liver membrane homogenates; from tissue; host or cells: rat liver membrane homogenates; settings: read-out: Ki at sigma-2 receptors
T1 sequence (Q5U3Y7 1-176): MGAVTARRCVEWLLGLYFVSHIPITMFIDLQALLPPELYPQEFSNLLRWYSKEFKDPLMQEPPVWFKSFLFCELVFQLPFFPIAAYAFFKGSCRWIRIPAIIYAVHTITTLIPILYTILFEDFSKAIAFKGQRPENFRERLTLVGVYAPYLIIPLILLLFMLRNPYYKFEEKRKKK
Description: Test compounds were dissolved in N,N-Dimethylformamide (DMF), dimethyl sulfoxide (DMSO) or ethanol and then diluted in 50 mM Tris-HCl pH 7.4 buffer containing 150 mM NaCl and 100 mM EDTA. Membrane homogenates were made from guinea pig brain for sigma-1 binding assay and rat liver for sigma-2 binding assay. Membrane homogenates were diluted with 50 mM Tris-HCl buffer, pH 8.0 and incubated at 25° C. in a total volume of 150 uL in 96 well plates with the radioligand and test compounds with concentrations ranging from 0.1 nM to 10 uM. After incubation was completed, the reactions were terminated by the addition of 150 uL of ice-cold wash buffer (10 mM Tris HCl, 150 mM NaCl, pH 7.4) using a 96 channel transfer pipette (Fisher Scientific, Pittsburgh, Pa.) and the samples harvested and filtered rapidly through 96 well fiber glass filter plate (Millipore, Billerica, Mass.) that had been presoaked with 100 uL of 50 mM Tris-HCl buffer. Each filter was washed four times with 200 uL of ice-cold wash buffer (10 mM Tris-HCl, 150 mM NaCl, pH 7.4).
The binding affinity, Ki values was calculated using the method of Cheng and Prusoff.

[14] = biological target: T1, sigma-2 receptor; assay: Sigma-2 competitive radioligand binding, [3H]DTG with 300 nM (+)pentazocine, rat cerebral cortex membranes
Description: Reactions were terminated by rapid filtration through Whatman GF/C filters using a Brandel 12R cell harvester followed by two washes with ice-cold buffer. Radioactivity on the dried filter discs was measured using a liquid scintillation analyzer (Tri-Carb 2900TR; PerkinElmer Life and Analytical Sciences). The displacement curves were plotted and the Ki values of the test ligands for the receptor subtypes were determined using GraphPad Prism (GraphPad Software Inc., San Diego, Calif.). The percentage specific binding was determined by dividing the difference between total bound (disintegrations per minute) and nonspecific bound (disintegrations per minute) by the total bound (disintegrations per minute).

With `COc1cc(CCC(C)NCc2ccc(C(F)(F)F)cc2)ccc1O` (stereo not shown) [Compound II] the “% Inhibition of Control” value [1] was 89%, the “% Inhibition of Control” value ([2]; Compound II 10 uM) was 54% and the “Other Targets: Na + ch2” value ([2]; Table 11E) was “Na + ch2 (2 uM)”. For the same compound, the “Decrease of Abeta binding intensity (Abeta puncta)” value ([3]; FIG. 3D) was 18%, the “Partial block of binding of Abeta oligomer ligand to neurons” value ([3]; imaging processing algorithm) was “about 25%” and the “Effect on Abeta oligomer-induced memory deficits” value [4] was “eliminated memory deficits; also recorded: completely blocked oligomer-mediated memory deficits at the 2 pmol dose”. The “Morris water maze performance versus vehicle-treated transgenic animals” value [5] was “significant improvement in transgenic performance”, the IC50 ([6]; Homo sapiens, SK-OV-3, tumor cell viability, 48 hrs) was 150 ± 12 µM and the Action ([6]; by EC50 relative to siramesine) was “Antagonist”. For the same compound, the “Block of SV-119-induced caspase-3 activation in tumor cells” value [7] was “do not block caspase-3 activation”, the “Caspase-3 activity induced in tumor cells” value [7] was “did not induce caspase-3 activity” and the “Block of SV-119-induced caspase-3 activation in neurons” value [8] was “blocked caspase-3 activation”. The “Caspase-3 activity induced in neurons” value [8] was “did not induce caspase-3 activity”, the hERG inhibition [9] was 24% and the IC50 [10] was > 30 µM. The “Nuclear morphology / nuclear intensity in neurons” value [11] was “did not decrease nuclear intensity”, the “Genotoxicity” value [12] was “no genotoxicity” and the Ki [13] was 59.7 nM. For the same compound, the Ki ([14]; Ki at sigma-2 receptors, displacement of [3H]DTG/300 nM (+)-pentazocine, rat neocortex homogenate) was 9 nM, the Ki ([14]; S2 binding Ki (nM), Table 11B) was 9 nM and the Ki ([14]; Sigma 2 Binding Ki (nM), Table 2, own compounds) was 9 nM. For the same compound, the Ki ([14]; Sigma Affinity (S2) nM, Table 11E, own compounds) was 9 nM.
